Experimental data from publication PMC11062906 (Nature, 2024).

Key:
[1] = target: T1, BmGr9 (Bombyx mori, UniProt B3GTD7); assay: Cell-based GCaMP calcium flux assay, wild-type BmGr9; settings: 100 mM sweet compound, HEK293 cells with BmGr9 plus GCaMP vs GCaMP only
[2] = target: T1, BmGr9; assay: Intrinsic tryptophan fluorescence of detergent-solubilized purified BmGr9; format: binding; settings: titration of purified BmGr9
[3] = target: Bombyx mori gustatory receptor Gr9 (BmGr9) (Bombyx mori) (UniProt B3GTD7); assay: native gel or EMSA; Coomassie-stained denaturing and native gels of purified BmGr9; effective molecular weight approximately 700 kDa including detergent micelle

T1 sequence (B3GTD7 entry or part of it): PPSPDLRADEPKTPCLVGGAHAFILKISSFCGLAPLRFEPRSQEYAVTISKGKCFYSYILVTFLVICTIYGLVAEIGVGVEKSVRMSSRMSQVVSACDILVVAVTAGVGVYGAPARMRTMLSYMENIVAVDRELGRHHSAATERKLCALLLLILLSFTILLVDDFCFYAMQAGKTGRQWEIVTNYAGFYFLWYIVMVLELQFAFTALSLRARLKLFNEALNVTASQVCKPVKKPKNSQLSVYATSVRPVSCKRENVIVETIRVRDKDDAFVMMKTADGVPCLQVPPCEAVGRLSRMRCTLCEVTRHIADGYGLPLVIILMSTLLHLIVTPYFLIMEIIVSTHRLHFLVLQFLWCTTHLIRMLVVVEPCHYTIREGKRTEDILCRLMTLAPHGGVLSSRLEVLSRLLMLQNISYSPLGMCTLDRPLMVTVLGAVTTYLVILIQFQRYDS

## OC[C@H]1O[C@H](O[C@]2(CCl)O[C@H](CCl)[C@@H](O)[C@@H]2O)[C@H](O)[C@@H](O)[C@H]1Cl [sucralose]
[1]
  Activation of BmGr9 (change in fluorescence) by sweet compound: significantly different activity

## OC[C@H]1O[C@@](CO)(O[C@H]2O[C@H](CO)[C@@H](O)[C@H](O)[C@H]2O)[C@@H](O)[C@@H]1O [sucrose]
[2]
  blue shift in the tryptophan fluorescence emission spectrum: did not induce a shift

## Bombyx mori gustatory receptor Gr9 (BmGr9) (from UniProt B3GTD7 2-449)
[3]
  stoichiometry N: 4
